Measurements taken from patent US12708640B2, “Synergistic nutritional compositions for treating vestibular associated neurodegenerative diseases” (CELAGENEX RESEARCH (INDIA) PVT. LTD., priority 2021, dated 2026).

What was measured:
Assay type in all cases: in vivo, Albino Wistar rat
[1] = system: sodium arsanilate induced vestibular dysfunction (Vertigo disorder) in wistar rats; experiment: Contact righting reflex
Excerpt: (§1) “Evaluation of test substance on sodium arsanilate induced vestibular dysfunction (Vertigo disorder) in wistar rats”.
(§2) Vestibular dysfunction was induced in rats by intratympanic injection of sodium arsanilate an ototoxic compound. Sodium arsanilate is an arsenic derivative and intratympanic injection result was vestibular nerve degeneration in brain stem with concomitant loss of labyrinthine righting and reduced postural support with exaggerated head dorsiflexion.
(§3) All the animals were acclimatized for at least 5 days under controlled environmental condition. Total 42 animals were divided into seven groups consisting of 6 animals per group. Normal control (G1) group receiving vehicle, disease control (G2) group receiving sodium arsanilate injection only, standard group (G3) receiving reference standard (vertin) and treatment groups G4, G5, G6 & G7 were treated with the test substances. All the groups (except normal control group) were induced with sodium arsanilate via intratymphanic injection. All the treatment groups were administered daily for 7 consecutive days.
The rats were placed in a syringe core tube in a supine position, following which the recovery time for position correction to be recorded. Normal rats turned over their body position in a few seconds.

[2] = Rat feed consumption in the sodium arsanilate vestibular dysfunction study; conditions: rats, group value
Excerpt: as §1
(§4) • Test Species: Rat • Strain: Albino Wistar • Sex: Male/Female • Age: 6-8 Weeks • Body Weight: 180-200 g • Source: In house breed • Total No. of Animals: 42 Animals (7 groups of 6 animals each) • Feed: Normal chow diet (Purina lab diet 5L79 Rat and Mouse 18%) (PMI Nutrition International) Environmental Conditions:
as §3
The feed consumption was calculated and reported on a daily basis throughout the study period.

[3] = system: sodium arsanilate induced vestibular dysfunction (Vertigo disorder) in wistar rats; experiment: Air righting reflex (air reflecting index)
Excerpt: as §1, §2, §3
A sponge was spread on a flat surface and the animals were placed in a supine position in the air 50 cm away above the sponge, following which the animal was dropped horizontally.
Four-legged smooth landing on the ground was considered as positive (normal animal), whereas the body or other regions landing first was considered vestibular dysfunction animals. The positive landing rate (%) of each rat in each group was recorded.

[4] = system: sodium arsanilate induced vestibular dysfunction (Vertigo disorder) in wistar rats; experiment: Open field test
Excerpt: as §1, §2, §3
The open-field was circular, with a diameter of 90 cm, and enclosed by a wall 30 cm high. The floor and wall of the open-field was black and the floor was divided into 25 equal area sections by thin white lines. The floor was covered with a transparent plastic coating. The open-field apparatus was located inside a large wooden frame which surrounded on all sides by black curtains. The field was illuminated by two 60-W fluorescent lights located 100 cm above the floor.
At the start of each session the rats were placed in one of the peripheral sections of the open-field and the animal's behavior was monitored by an observer for 10 consecutive minutes. […] At the end of each session the rat was returned to its home cage and the floor of the open-field was cleaned and sponged over with a weak vinegar solution to remove any residual odors.

[5] = Rat body weight in the sodium arsanilate vestibular dysfunction study; conditions: rats, group value
Excerpt: as §1, §4, §3
Individual body weights were recorded at receipt, on the day of randomization, on the first day of treatment before dosing and weekly once thereafter throughout the treatment period. The body weight changes for all the animals were calculated and reported along with the body weight data.

[6] = open field test, wrt. disease control G2

CNCCc1ccccn1 [Group 3, reference compound]
Contact righting reflex (time) ([1]; animal 1, recovery time for position correction): 21 s
Contact righting reflex (time) ([1]; animal 2, recovery time for position correction): 26 s
Contact righting reflex (time) ([1]; animal 3, recovery time for position correction): 28 s
Contact righting reflex (time) ([1]; animal 4, recovery time for position correction): 23 s
Contact righting reflex (time) ([1]; animal 5, recovery time for position correction): 27 s
Contact righting reflex (time) ([1]; animal 6, recovery time for position correction): 26 s
Contact righting reflex (time), Average ([1]; group average of 6 animals): 25.17 s
contact righting reflex, improvement (wrt. the Disease Control) ([1]; wrt. the Disease Control): around 38%
Feed Consumption, 0 day ([2]; 0 day): 15.33 gm
Feed Consumption, 7th day ([2]; 7th day): 16.00 gm
Air Righting Reflex (% successfully righted within 5 s) ([3]; animal 1): 40%
Air Righting Reflex, Successful out of 5 ([3]; animal 1, end of 7-day treatment): 2
Air Righting Reflex (% successfully righted within 5 s) ([3]; animal 2): 60%
Air Righting Reflex, Successful out of 5 ([3]; animal 2, end of 7-day treatment): 3
Air Righting Reflex (% successfully righted within 5 s) ([3]; animal 3): 40%
Air Righting Reflex, Successful out of 5 ([3]; animal 3, end of 7-day treatment): 2
Air Righting Reflex (% successfully righted within 5 s) ([3]; animal 4): 60%
Air Righting Reflex, Successful out of 5 ([3]; animal 4, end of 7-day treatment): 3
Air Righting Reflex (% successfully righted within 5 s) ([3]; animal 5): 40%
Air Righting Reflex, Successful out of 5 ([3]; animal 5, end of 7-day treatment): 2
Air Righting Reflex (% successfully righted within 5 s) ([3]; animal 6): 60%
Air Righting Reflex, Successful out of 5 ([3]; animal 6, end of 7-day treatment): 3
Air Righting Reflex (% of Rats that successfully righted themselves within 5 s), Average ([3]; group average of 6 animals): 50.00%
Ambulation Score [the number of open-field sections entered by the rat] ([4]; animal 1): 200
Defecation [the number of fecal boli deposited in the open-field] ([4]; animal 1): 3
Grooming [the number of grooming bouts exhibited by the rat] ([4]; animal 1): 4
Rearing Responses [the number of times the animal raised both forefeet off the floor and extended its body] ([4]; animal 1): 5
Ambulation Score [the number of open-field sections entered by the rat] ([4]; animal 2): 210
Defecation [the number of fecal boli deposited in the open-field] ([4]; animal 2): 4
Grooming [the number of grooming bouts exhibited by the rat] ([4]; animal 2): 3
Rearing Responses [the number of times the animal raised both forefeet off the floor and extended its body] ([4]; animal 2): 4
Ambulation Score [the number of open-field sections entered by the rat] ([4]; animal 3): 215
Defecation [the number of fecal boli deposited in the open-field] ([4]; animal 3): 2
Grooming [the number of grooming bouts exhibited by the rat] ([4]; animal 3): 3
Rearing Responses [the number of times the animal raised both forefeet off the floor and extended its body] ([4]; animal 3): 6
Ambulation Score [the number of open-field sections entered by the rat] ([4]; animal 4): 230
Defecation [the number of fecal boli deposited in the open-field] ([4]; animal 4): 3
Grooming [the number of grooming bouts exhibited by the rat] ([4]; animal 4): 5
Rearing Responses [the number of times the animal raised both forefeet off the floor and extended its body] ([4]; animal 4): 4
Ambulation Score [the number of open-field sections entered by the rat] ([4]; animal 5): 220
Defecation [the number of fecal boli deposited in the open-field] ([4]; animal 5): 4
Grooming [the number of grooming bouts exhibited by the rat] ([4]; animal 5): 6
Rearing Responses [the number of times the animal raised both forefeet off the floor and extended its body] ([4]; animal 5): 5
Ambulation Score [the number of open-field sections entered by the rat] ([4]; animal 6): 225
Defecation [the number of fecal boli deposited in the open-field] ([4]; animal 6): 3
Grooming [the number of grooming bouts exhibited by the rat] ([4]; animal 6): 5
Rearing Responses [the number of times the animal raised both forefeet off the floor and extended its body] ([4]; animal 6): 4
Ambulation Score [the number of open-field sections entered by the rat], Average ([4]; group average of 6 animals): 216.67
Defecation [the number of fecal boli deposited in the open-field], Average ([4]; group average of 6 animals): 3.17
Grooming [the number of grooming bouts exhibited by the rat], Average ([4]; group average of 6 animals): 4.33
Rearing Responses [the number of times the animal raised both forefeet off the floor and extended its body], Average ([4]; group average of 6 animals): 4.67
% Improvement in Ambulation score wrt. G2 [4, 6]: 13.91%
% Improvement in Defecation wrt. G2 [4, 6]: 26.92%
% Improvement in Grooming wrt. G2 [4, 6]: 44.68%
% Improvement in Rearing Responses wrt. G2 [4, 6]: 43.75%
Body Weight, End of the treatment ([5]; after 7 days daily treatment): 188.10 gm
Body Weight, Initial ([5]; initial): 186.83 gm
